Experimental findings from PubChem BioAssay (NCI) are described below.

Among the test systems are MDA-MB-231 breast; 786-0 renal; SK-OV-3 ovarian; HCT-15 colon; A549 NSCLC; OVCAR-5 ovarian; HL-60(TB) leukemia; HOP-92 NSCLC; SN12C renal; MDA-MB-435.
What all share (assay): NCI-60 cell line screen, 48 h

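Briefly, cells in 96-well plates were exposed to five compound concentrations for 48 h, and endpoints were estimated by linear interpolation. GI50 marks 50% less growth. Definition used: TGI = concentration required for complete inhibition of growth.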 A value given as a limit tells only on which side of the number the result lay.

In the case of `COc1ccc(/C=N/C2=NNC(C)(c3ccccc3O)N2C(Cc2c[nH]c3ccccc23)C(=O)O)cc1` (stereo not given), the GI50 was 1.89 µM in the experiment on MDA-MB-231 breast; 3.36 µM with 786-0 renal; 2.85 µM with SK-OV-3 ovarian; 2.81 µM in the experiment on HCT-15 colon; 4.44 µM in the experiment on A549 NSCLC; 3.06 µM with OVCAR-5 ovarian. Moreover, the GI50 with HL-60(TB) leukemia was 2.28 µM; in the experiment with HOP-92 NSCLC, 1.31 µM; with SN12C renal, 3.11 µM; with MDA-MB-435, 1.7 µM. Further, the TGI with MDA-MB-231 breast was 8.89 µM; in the experiment on 786-0 renal, 13 µM; in the experiment on SK-OV-3 ovarian, 14.5 µM; with HCT-15 colon, 11.8 µM; in the experiment on A549 NSCLC it was 30.5 µM; in the experiment with OVCAR-5 ovarian it was 19 µM. In addition, the TGI in the experiment on HL-60(TB) leukemia was found to be 8.9 µM; in the experiment with HOP-92 NSCLC, 5.17 µM; in the experiment on SN12C renal, 11.3 µM; with MDA-MB-435, 5.68 µM.

As to `Nc1n[nH]c2cc(F)c([C@@H]3Nc4c(F)cc5[nH]ncc5c4[C@H]4C5CCC(C5)[C@@H]34)cc12` (stereo not given in full), the GI50 in the experiment with MDA-MB-231 breast is 0.135 µM; in the experiment with 786-0 renal it was 0.211 µM; in the experiment on SK-OV-3 ovarian, 0.275 µM; in the experiment with HCT-15 colon, 0.111 µM; in the experiment with A549 NSCLC it was 0.134 µM; in the experiment on OVCAR-5 ovarian, 0.175 µM. Further, the GI50 with HL-60(TB) leukemia was 0.1 µM; in the experiment with HOP-92 NSCLC it was 0.36 µM; with SN12C renal it was 0.187 µM; in the experiment on MDA-MB-435 it was 0.0727 µM. Moreover, the TGI with MDA-MB-231 breast amounted to 5.05 µM; with 786-0 renal, 7.85 µM; in the experiment on SK-OV-3 ovarian, 20.7 µM; in the experiment with HCT-15 colon, 3.69 µM; with A549 NSCLC, 13.9 µM; with OVCAR-5 ovarian it was 8.52 µM. The TGI was 0.317 µM in the experiment on HL-60(TB) leukemia, 4.1 µM in the experiment with HOP-92 NSCLC, 9.46 µM with SN12C renal and 0.195 µM in the experiment on MDA-MB-435.

For `CCOc1cc(CCNC)c2c(ccc3ccc(OC)c(O)c32)c1OC`, the TGI was found to be 28.5 µM in the experiment on MDA-MB-231 breast; 32.1 µM in the experiment with 786-0 renal; 27.5 µM with SK-OV-3 ovarian; 35.7 µM in the experiment with HCT-15 colon; 39.6 µM with A549 NSCLC; 29.5 µM with OVCAR-5 ovarian. The TGI was more than 100 µM in the experiment with HL-60(TB) leukemia, 25.2 µM in the experiment on HOP-92 NSCLC, 36.7 µM in the experiment with SN12C renal and 27.5 µM in the experiment on MDA-MB-435.

On to `C#CCn1c2c(c3ccccc3c1=O)C(=O)c1ccccc1-2`, for which the TGI was 39.1 µM in the experiment with MDA-MB-231 breast; 32 µM in the experiment on 786-0 renal; 73.1 µM in the experiment on SK-OV-3 ovarian; more than 100 µM in the experiment on HCT-15 colon; 57.3 µM with A549 NSCLC; more than 100 µM with OVCAR-5 ovarian. Also, the TGI was 10.2 µM in the experiment on HL-60(TB) leukemia, more than 100 µM in the experiment on HOP-92 NSCLC, 81.6 µM in the experiment with SN12C renal and more than 100 µM in the experiment on MDA-MB-435.

For `CN1CCC(n2cnc(-c3ccc(F)cc3)c2-c2ccnc(Nc3ccccc3)n2)CC1`, the GI50 was 13.6 µM with MDA-MB-231 breast; 8.4 µM in the experiment on 786-0 renal; 3.81 µM in the experiment with SK-OV-3 ovarian; 6.22 µM with HCT-15 colon; 2.81 µM with A549 NSCLC; 15 µM in the experiment with OVCAR-5 ovarian. Further, the GI50 in the experiment with HL-60(TB) leukemia was 9.65 µM; in the experiment with HOP-92 NSCLC, 5.18 µM; with SN12C renal, 7.09 µM; with MDA-MB-435 it was 3.64 µM. Also, the TGI in the experiment with MDA-MB-231 breast, in the experiment with 786-0 renal, with SK-OV-3 ovarian, with HCT-15 colon, with A549 NSCLC and in the experiment on OVCAR-5 ovarian was more than 25 µM in each case. Moreover, the TGI with HL-60(TB) leukemia is more than 23.2 µM; in the experiment on HOP-92 NSCLC, 24.6 µM; in the experiment on SN12C renal, more than 25 µM; in the experiment on MDA-MB-435 it was 11.9 µM.
